Assay [1] relates to dendritic cell. The experiment in a line: Dendritic cell activation or inactivation, same in vitro system as Examples 1 and 2. The format is cell-based, mouse. The conditions noted are these: treatment with 1-10 μM. Here is the method:
(§1) Bone marrow cells were obtained from a C57BL/6 mouse (obtained from Clea Japan) and subjected to cell culture using an RPMI medium (SIGMA, R8758) supplemented with 10% FCS (EQUITECH-BIO Inc., #SFB-30-1388) and granulocyte macrophage colony stimulating factor (GM-CSF) in a 5% CO2 environment at 37° C. for 6 days to induce the differentiation of bone marrow-derived dendritic cells (BMDC). To this BMDC, TPEN (SIGMA, P4413) was added for 6 hours to 12 hours to obtain concentrations of 0-2 μM in the medium. Also prepared was a group in which lipopolysaccharide (LPS; 100 ng/mL; SIGMA, L2637, E. Coli O55:B5) was added for control of antigen-presenting cell activation. […] When the cells were treated with the zinc ion chelator, the expression of MHC class II molecule on BMDC was enhanced as with LPS.
In the same experiment (in vitro system) as Examples 1 and 2, dendritic cell activation or inactivation was observed by a treatment with 1-10 μM zinc ion or TPEN.

Assay [2] has as its system bone marrow-derived dendritic cells (BMDC). Nature of the assay: Expression of MHC class I, class II and CD86 molecules on the cell surface of dendritic cells treated with a zinc ion chelator (FACS). The format is cell-based, mouse. The note with it: for expression of MHC class II molecule on BMDC: TPEN 0-2 μM for 6 to 12 hours (dose and treatment time dependency), LPS 100 ng/mL as activation control, FACS. Here is the method:
Dendritic cells, a type of antigen-presenting cells, were treated with N,N,N′,N′-tetrakis(2-pyridylmethyl)ethylenediamine (TPEN), a zinc ion chelator, and examined for the expression of MHC class I molecule, class II molecule and CD86 molecule on the cell surface.
as §1

Setting [3] is: dendritic cells treated with zinc ion chelator, FIG. 1.

Turning to `c1ccc(CN(CCN(Cc2ccccn2)Cc2ccccn2)Cc2ccccn2)nc1` [TPEN, N,N,N′,N′-tetrakis(2-pyridylmethyl)ethylenediamine], the “dendritic cell activation or inactivation” value in assay [1] is given as “observed”. The “expression of MHC class II molecule on BMDC” value in assay [2] is “enhanced”. Besides, in assay [2] (setting [3]), the “expression of CD86 molecule on the cell surface” value is reported as “enhanced” and the “expression of MHC class I molecule on the cell surface” value is “enhanced”.
Turning to `O=S(=O)([O-])[O-].[Zn+2]` [zinc ion, ZnSO4], the “dendritic cell activation or inactivation” value in assay [1] is “observed”.
Take lipopolysaccharide [LPS]: the “expression of MHC class II molecule on BMDC” value in assay [2] is “enhanced”.

The record behind these values is patent US20090054316A1, “AGENT FOR CONTROL OF FUNCTION OF ANTIGEN-PRESENTING CELL” (RIKEN, priority 2005, published 2009).
